Measurements published in patent US20130302445A1, “APPARATUS AND METHOD FOR TREATING CEREBRAL ISCHEMIA USING NON-INHALED CARBON DIOXIDE” (priority 2012, published 2013).

How the values were obtained:
[1] = test system: cerebral blood flow in rats; assay: Intranasal or intra-oral delivery of non-inhaled CO2 with air ventilation through a tracheostomy; cerebral blood flow and arterial gases; type: in vivo; details: rat
Description: When CO2 s inhaled through the nose or mouth into the pulmonary circulation, it passes into the systemic blood stream through the alveoli. Once it reaches the brain, it diffuses out into the csf to exert its effect. As more CO2 is inhaled into the lungs and absorbed into the systemic circulation, arterial CO2 concentration (PaCO2) rises, hydrogen ions are produced and arterial pH falls, creating an acidosis. Acidosis leads to narcosis, and ultimately coma and death. Less severe signs of CO2 inhalation in non-intubated patients include headaches, sweating and hyperventilation. […] Inhalation is prevented by ventilating the animal through a tracheostomy with air while delivering the experimental gas intranasally (or intra orally).
The increase is the same with 100% and with 50% gas concentration. […] Decline following discontinuation is somewhat slower than rise during delivery.
(§1) Referring now to FIG. 3, it can be seen that the increase in cbf is attributable to focal intranasal or intra-oral effect rather than to systemic absorption of CO2. […] At this very high concentration, sufficient CO2 must be absorbed focally, intracranially, into the cerebral circulation to appear in measurable amounts in the systemic circulation. It cannot be concluded, therefore, that the increase in cbf is caused by a purely local action of CO2 rather than being secondary to systemic absorption. […] The effect on cbf during intranasal or intra oral delivery of CO2 with concomitant air inhalation into the lungs is therefore a focal effect on intranasal and intracranial vasculature rather than secondary to systemic absorption.

[2] = test system: cerebral blood flow in rats; assay: CO2 delivered into the lungs (systemic challenge); cerebral blood flow and arterial gases; type: in vivo; details: rat, delivery into lungs
Description: as §1

awake humans = assay: Tolerability of intranasal CO2 delivery in awake humans; type: in vivo, human
Description: While CO2 may be given to intubated, comatose individuals, the tolerability of intranasal gas delivery in awake humans has not previously been investigated. We have systematically tested the tolerability and effect of CO2 during intranasal delivery. CO2 elicits intense burning and stinging sensations which are intolerable above 16%. […] So individuals who are awake, such as stroke patients, these lower concentrations would be recommended. The current invention delivers CO2, or a combination of gases into the nasal or oral cavity but prevents its inhalation for the purposes of improving outcome from cerebral ischemia. […] In the embodiment with the anterior occlusion or “clip,” the CO2 could escape via a valve or exit tube or be suctioned out into a vacuumed container.

intubated patients = details: hypercarbia from reduced ventilation rate; cited from earlier work
[3] = 50% CO2 intranasal, air into lungs

O=C=O [CO2, carbon dioxide]
arterial pH, intranasal CO2 concentration 50% [1, 3]: without any detectable increase in systemic PaCO2 or fall of pH
cbf, intranasal CO2 concentration 50% [1, 3]: doubles
systemic PaCO2, intranasal CO2 concentration 50% [1, 3]: without any detectable increase
cbf, 100% CO2 delivered intranasally ([1]; 100% CO2 intranasal): also increases
systemic CO2, 100% CO2 delivered intranasally, compared with lung delivery ([1]; 100% CO2 intranasal): far less increase
onset of cbf increase after start of delivery ([1]; intranasal or intra-oral, non-inhaled): within seconds
cbf during intranasal or intra-oral delivery of CO2 ([1]; non-inhaled, increase the same with 100% and 50% gas concentration): more than doubled
arterial CO2 concentration when CO2 is delivered into the lungs [2]: rapidly increases
arterial pH when CO2 is delivered into the lungs [2]: falls
cbf when CO2 is delivered into the lungs [2]: increases sharply
CO2 concentration above which burning and stinging sensations are intolerable (awake humans): above 16%
tolerability of sensations at 16% CO2 or below (awake humans; 16% or below, sensations abate over a few minutes): quite tolerable
increase in cbf per mm Hg increase in arterial CO2 over 45 mm (intubated patients): 4%
